Results reported in PubChem BioAssay (NCI).
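Values below derive from 48-hour exposures of cells grown in 96-well plates, with endpoints linearly interpolated between the two concentrations bracketing the appropriate inhibition level. TGI is the concentration that stops growth completely.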

Columns and labels:
Assay in all cases: growth of human tumour cells (NCI), 48 h
[1] = test system: SK-MEL-5 melanoma
[2] = test system: U251 CNS
[3] = test system: HCC-2998 colon
[4] = test system: HOP-92 NSCLC
[5] = test system: OVCAR-8 ovarian
[6] = test system: SF-295 CNS
[7] = test system: UACC-257 melanoma
[8] = test system: NCI-H23 lung
[9] = test system: SNB-75 CNS
[10] = test system: HCT-116 colon
[11] = test system: SF-268 CNS
[12] = test system: SN12C renal
[13] = test system: HL-60(TB) leukemia
[14] = test system: KM12 colon
[15] = test system: RXF 393 renal
[16] = test system: OVCAR-4 ovarian
[17] = test system: HCT-15 colon
[18] = test system: DU-145 prostate
[19] = test system: MDA-MB-435
[20] = test system: PC-3 prostate

Measured: TGI

O=S1c2ccc(Cl)cc2CC(SSC2Cc3cc(Cl)ccc3S(=O)c3ccccc32)c2ccccc21 (stereo not given)
not listed: [17] | [18] | [19] | [20]
> 100 µM: all other assays above

O=C(/C=C\c1ccccc1-c1ccccc1)c1ccccc1
not listed: [20]
> 100 µM: all other assays above

CCn1c(SCC(=O)NNC(=S)Nc2ccc(F)cc2)nc2ccccc2c1=O
not listed: [4]
> 100 µM: all other assays above

CCOC(=O)/C(=C\NC(C)(C)C)c1nc2ccccc2o1
92.1 µM: [4]
19.1 µM: [13]
26 µM: [1]
67.1 µM: [15]
51.1 µM: [7]
not listed: [2] | [3] | [20]
> 100 µM: all other assays above

COc1cc(CCCC(O)COc2cccc3c2C2(O)CCCCCC32)cc(OC)c1 (stereo not given)
31.8 µM: [12]
45.9 µM: [13]
32.5 µM: [7]
20.5 µM: [1]
37.8 µM: [5]
32.6 µM: [8]
17.9 µM: [3]
34 µM: [17]
32.9 µM: [2] | [11]
30.2 µM: [9]
30.5 µM: [6]
19.9 µM: [4]
31.5 µM: [10]
40.6 µM: [16]
43.2 µM: [15]
34.5 µM: [14]

COc1ccc(N2C(=O)/C(=C\c3cc(OC)c(OC)c(OC)c3)S(=O)(=O)C2c2ccccc2)cc1 (stereo not given)
72.3 µM: [19]
not listed: [9] | [13] | [20]
> 100 µM: all other assays above

C/C(=N/NC(=S)N1CCCC1)c1cccc(/C(C)=N\NC(=S)N2CCCC2)n1
4.46 µM: [14]
14.7 µM: [11]
2.69 µM: [1]
3.18 µM: [15]
2.35 µM: [5]
4.96 µM: [17]
2.24 µM: [6]
2.86 µM: [3]
4.88 µM: [13]
6.5 µM: [8]
5.36 µM: [20]
3.13 µM: [19]
3.28 µM: [10]
38.5 µM: [18]
5.73 µM: [12]
4.14 µM: [2]

CNC(=O)CN(CC(N)=O)C(=O)NC
not listed: [7] | [10] | [12] | [18] | [19] | [20]
> 100 µM: all other assays above

COc1ccc(C(CC(=O)c2ccccc2)C(=O)c2ccc3c(c2)OCO3)cc1 (stereo not given)
not listed: [4] | [10] | [15] | [16]
> 100 µM: all other assays above

Cc1ccccc1NC(=O)/C(C#N)=N\Nc1nc[nH]c1C(N)=O
not listed: [4]
> 100 µM: all other assays above

O=C1/C(=C/c2ccccc2)CCCC/C1=C\c1ccccc1
70.4 µM: [1]
59.5 µM: [15]
not listed: [13] | [18] | [19] | [20]
> 100 µM: all other assays above

CCO/C(O)=C(/C(=N)N1CCCC1)C(=O)Nc1ccc(Cl)cc1
not listed: [1] | [4]
> 100 µM: all other assays above

Cc1ncc([N+](=O)[O-])n1CCNC(=O)CCn1ccnc1[N+](=O)[O-]
not listed: [4] | [15]
> 100 µM: all other assays above

CNC(=S)NNC1=NCCCCN1
not listed: [12] | [18]
> 100 µM: all other assays above
